Values after ≈ are worked out from the molar mass of the structure shown. Where two headings read alike, the source gives them in different places.
Columns and labels:
[1] = target: human (hACC2) (Homo sapiens, UniProt O00763); assay: In vitro ACC inhibition assay (ADP-Glo), hACC2; assay type: biochemical; conditions: 5 nM ACC2, 20 μM ATP, 20 μM acetyl-CoA
Procedure: The detailed procedure is as follows. […] 10 μL ADP glo reagent was added. […] 20 μL kinase detection reagent was added.

[2] = test system: Rhizoctonia solani (Rs); assay: Growth inhibition assay of fungal pathogens, Rs; assay type: cell-based; conditions: 48 h
[3] = test system: Collectotrichum graminicola (Cg); assay: Growth inhibition assay of fungal pathogens, Cg; assay type: cell-based; conditions: 48 h
In short: (§1)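 Spores diluted in 17% V8 liquid media and incubated with compound at final 50, 10, 2 ppm or 2, 0.4, 0.08 ppm (2% DMSO). OD600 plus visual ratings at 24 and 48 hours, blank-subtracted; percent growth inhibition from 48 h readings relative to 2% DMSO control.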

[4] = test system: Diplodia maydis (Dm); assay: Growth inhibition assay of fungal pathogens, Dm; assay type: cell-based; conditions: Stenocarpella maydis, 48 h
In short: as §1

[5] = test system: C. albicans; assay: Antifungal Activity Assay (broth microtiter MIC), C. albicans; assay type: cell-based, Candida albicans; conditions: Candida albicans, ATCC90028, 48 h
In short: (§2)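 Susceptibility was determined by CLSI M27-A3 broth microdilution in RPMI 1640 buffered with MOPS. Growth inhibition was scored visually after 48 h.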

[6] = test system: Fusarium virguliforme (Fv); assay: Growth inhibition assay of fungal pathogens, Fv; assay type: cell-based; conditions: 48 h
In short: as §1

[7] = test system: Phytophthora capsici (Pc); assay: Growth inhibition assay of fungal pathogens, Pc; assay type: cell-based; conditions: 48 h
In short: as §1

[8] = test system: Septoria tritici (St); assay: Growth inhibition assay of fungal pathogens, St; assay type: cell-based; conditions: Zymoseptoria tritici, 48 h
In short: as §1

[9] = test system: Fusarium moniliforme (Fm); assay: Growth inhibition assay of fungal pathogens, Fm; assay type: cell-based; conditions: for IC90: Fusarium verticillioides, 48 h, read-out: Concentration at 90% Inhibition Fm
In short: as §1

[10] = test system: C. parapsilosis; assay: Antifungal Activity Assay (broth microtiter MIC), C. parapsilosis; assay type: cell-based, Candida parapsilosis; conditions: Lodderomyces parapsilosis, ATCC22019, 48 h
In short: as §2

[11] = test system: C. krusei; assay: Antifungal Activity Assay (broth microtiter MIC), C. krusei; assay type: cell-based, Candida krusei; conditions: Pichia kudriavzevii, ATCC6258, 48 h
In short: as §2

[12] = read-out: Concentration at 90% Inhibition Rs, Rhizoctonia solani, mycelial plugs, growth inhibition at 48 hours vs 2% DMSO control
[13] = read-out: Concentration at 90% Inhibition Rs, Rhizoctonia solani, mycelial plugs, growth inhibition vs 2% DMSO control at 48 hours
[14] = read-out: Concentration at 90% Inhibition Cg, Collectotrichum graminicola, growth inhibition at 48 hours vs 2% DMSO control
[15] = read-out: Concentration at 90% Inhibition Cg, Collectotrichum graminicola, growth inhibition vs 2% DMSO control at 48 hours
[16] = read-out: Concentration at 90% Inhibition Dm, Diplodia maydis, growth inhibition at 48 hours vs 2% DMSO control
[17] = read-out: Concentration at 90% Inhibition Dm, Diplodia maydis, growth inhibition vs 2% DMSO control at 48 hours
[18] = read-out: MIC, C. albicans ATCC 90028, Table 3a, 3 replicates, MIC recorded at 48 h
[19] = read-out: MIC, C. albicans ATCC 90028, Table 3b (additional results), 3 replicates, MIC recorded at 48 h
[20] = read-out: Concentration at 90% Inhibition Fv, Fusarium virguliforme, growth inhibition at 48 hours vs 2% DMSO control
[21] = read-out: Concentration at 90% Inhibition Fv, Fusarium virguliforme, growth inhibition vs 2% DMSO control at 48 hours
[22] = read-out: Concentration at 90% Inhibition Pc, Phytophthora capsici, growth inhibition at 48 hours vs 2% DMSO control
[23] = read-out: Concentration at 90% Inhibition Pc, Phytophthora capsici, growth inhibition vs 2% DMSO control at 48 hours
[24] = read-out: Concentration at 90% Inhibition St, Septoria tritici, growth inhibition at 48 hours vs 2% DMSO control
[25] = read-out: Concentration at 90% Inhibition St, Septoria tritici, growth inhibition vs 2% DMSO control at 48 hours
[26] = Fusarium moniliforme, growth inhibition at 48 hours vs 2% DMSO control
[27] = read-out: MIC, C. parapsilosis ATCC 22019, Table 3a, 3 replicates, MIC recorded at 48 h
[28] = read-out: MIC, C. parapsilosis ATCC 22019, Table 3b (additional results), 3 replicates, MIC recorded at 48 h
[29] = read-out: MIC, C. krusei ATCC 6258, Table 3a, 3 replicates, MIC recorded at 48 h
[30] = read-out: MIC, C. krusei ATCC 6258, Table 3b (additional results), 3 replicates, MIC recorded at 48 h

human (hACC2), sequence (O00763 whole entry): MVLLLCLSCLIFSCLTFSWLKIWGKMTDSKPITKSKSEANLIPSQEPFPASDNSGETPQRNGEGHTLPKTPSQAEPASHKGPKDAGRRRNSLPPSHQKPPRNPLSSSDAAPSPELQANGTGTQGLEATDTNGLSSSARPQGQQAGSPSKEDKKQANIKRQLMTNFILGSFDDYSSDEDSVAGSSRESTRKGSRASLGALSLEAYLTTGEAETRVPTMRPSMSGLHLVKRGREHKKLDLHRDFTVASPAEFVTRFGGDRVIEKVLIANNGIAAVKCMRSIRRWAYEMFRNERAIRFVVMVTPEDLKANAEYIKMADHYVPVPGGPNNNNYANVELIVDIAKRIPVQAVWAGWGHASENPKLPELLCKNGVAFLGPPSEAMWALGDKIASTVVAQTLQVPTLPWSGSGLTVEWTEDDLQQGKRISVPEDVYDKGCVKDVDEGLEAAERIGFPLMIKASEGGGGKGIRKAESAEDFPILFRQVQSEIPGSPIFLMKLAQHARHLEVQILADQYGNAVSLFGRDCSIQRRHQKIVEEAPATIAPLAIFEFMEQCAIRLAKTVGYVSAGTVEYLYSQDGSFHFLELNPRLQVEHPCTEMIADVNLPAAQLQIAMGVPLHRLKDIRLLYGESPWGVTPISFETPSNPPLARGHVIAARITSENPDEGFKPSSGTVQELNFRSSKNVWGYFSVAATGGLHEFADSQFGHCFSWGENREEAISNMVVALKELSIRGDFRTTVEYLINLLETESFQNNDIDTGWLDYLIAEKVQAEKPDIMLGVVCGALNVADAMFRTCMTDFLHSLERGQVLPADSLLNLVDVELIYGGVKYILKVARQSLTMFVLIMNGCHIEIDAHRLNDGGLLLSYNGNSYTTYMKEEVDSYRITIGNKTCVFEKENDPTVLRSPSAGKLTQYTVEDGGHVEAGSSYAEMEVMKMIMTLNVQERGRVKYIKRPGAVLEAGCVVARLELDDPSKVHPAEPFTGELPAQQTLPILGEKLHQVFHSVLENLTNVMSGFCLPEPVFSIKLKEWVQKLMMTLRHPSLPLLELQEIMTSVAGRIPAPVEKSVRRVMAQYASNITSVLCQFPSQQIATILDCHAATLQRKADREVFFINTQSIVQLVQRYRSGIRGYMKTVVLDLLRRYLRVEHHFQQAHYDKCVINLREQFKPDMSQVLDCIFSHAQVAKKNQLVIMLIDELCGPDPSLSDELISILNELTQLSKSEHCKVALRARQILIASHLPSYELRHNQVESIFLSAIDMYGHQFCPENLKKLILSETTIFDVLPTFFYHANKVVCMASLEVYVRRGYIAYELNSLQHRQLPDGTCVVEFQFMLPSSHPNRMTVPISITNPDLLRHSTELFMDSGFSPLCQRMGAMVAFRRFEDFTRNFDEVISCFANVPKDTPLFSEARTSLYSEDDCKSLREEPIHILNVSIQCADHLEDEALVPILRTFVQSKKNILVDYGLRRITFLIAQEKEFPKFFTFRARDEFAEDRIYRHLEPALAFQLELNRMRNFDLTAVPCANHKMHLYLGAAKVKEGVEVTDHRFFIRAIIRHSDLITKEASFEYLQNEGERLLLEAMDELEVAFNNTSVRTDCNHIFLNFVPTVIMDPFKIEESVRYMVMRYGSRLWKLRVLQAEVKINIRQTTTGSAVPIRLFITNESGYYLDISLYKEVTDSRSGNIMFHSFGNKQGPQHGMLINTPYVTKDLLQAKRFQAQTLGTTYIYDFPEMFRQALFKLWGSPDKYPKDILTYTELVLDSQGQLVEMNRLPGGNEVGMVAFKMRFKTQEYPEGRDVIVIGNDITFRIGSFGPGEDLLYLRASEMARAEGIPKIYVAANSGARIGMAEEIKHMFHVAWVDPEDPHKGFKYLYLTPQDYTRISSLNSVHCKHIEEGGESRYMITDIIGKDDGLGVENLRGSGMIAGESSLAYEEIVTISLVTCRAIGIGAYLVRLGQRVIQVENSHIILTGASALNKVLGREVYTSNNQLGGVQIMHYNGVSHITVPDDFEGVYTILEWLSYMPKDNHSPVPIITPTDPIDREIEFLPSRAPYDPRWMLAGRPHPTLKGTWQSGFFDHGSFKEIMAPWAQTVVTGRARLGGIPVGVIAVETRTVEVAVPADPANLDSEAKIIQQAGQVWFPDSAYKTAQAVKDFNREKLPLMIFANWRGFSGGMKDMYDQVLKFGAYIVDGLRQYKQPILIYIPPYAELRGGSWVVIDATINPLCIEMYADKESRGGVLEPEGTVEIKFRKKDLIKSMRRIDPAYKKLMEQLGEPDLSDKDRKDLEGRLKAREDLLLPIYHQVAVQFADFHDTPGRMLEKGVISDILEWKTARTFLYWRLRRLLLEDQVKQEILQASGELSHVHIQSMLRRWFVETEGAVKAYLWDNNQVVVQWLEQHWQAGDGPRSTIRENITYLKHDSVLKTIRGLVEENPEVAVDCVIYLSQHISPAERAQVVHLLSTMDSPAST

| Compound | IC50 ([1]; Table 2a) [nM] | IC50 ([1]; Table 2b, additional results) [nM] | IC90 [2, 12] [µg/mL] | IC90 [2, 13] [µg/mL] | IC90 [3, 14] [µg/mL] | IC90 [3, 15] [µg/mL] | IC90 [4, 16] [µg/mL] | IC90 [4, 17] [µg/mL] | MIC [5, 18] [µg/mL] | MIC [5, 19] [µg/mL] | IC90 [6, 20] [µg/mL] | IC90 [6, 21] [µg/mL] | IC90 [7, 22] [µg/mL] | IC90 [7, 23] [µg/mL] | IC90 [8, 24] [µg/mL] | IC90 [8, 25] [µg/mL] | Concentration at 90% Inhibition Fm [9, 26] | IC90 [9] [µg/mL] | MIC [10, 27] [µg/mL] | MIC [10, 28] [µg/mL] | other results |
| --- | --- | --- | --- | --- | --- | --- | --- | --- | --- | --- | --- | --- | --- | --- | --- | --- | --- | --- | --- | --- | --- |
| COc1ccc(F)cc1[C@H](Cn1c(=O)n(C(C)(C)C(=O)N2CCCCC2)c(=O)c2c(C)c(-n3nccn3)sc21)OC1CCC(=O)CC1 [Compound I-34, (R)-1-(2-(5-fluoro-2-methoxyphenyl)-2-((4-oxocyclohexyl)oxy)ethyl)-5-methyl-3-(2-methyl-1-oxo-1-(piperidin-1-yl)propan-2-yl)-6-(2H-1,2,3-triazol-2-yl)thieno[2,3-d]pyrimidine-2,4(1H,3H)-dione] | 5 to 10 | 5 to 10 | 2 (≈ 3 µM) | 2 (≈ 3 µM) | 0.4 (≈ 0.6 µM) | 0.4 (≈ 0.6 µM) | 2 (≈ 3 µM) | 2 (≈ 3 µM) | 0.25 to 1 (≈ 0.375 to 1.5 µM) | 0.25 to 1 (≈ 0.375 to 1.5 µM) | 0.4 (≈ 0.6 µM) | 0.4 (≈ 0.6 µM) | > 50 | > 50 | > 50 | > 50 | AA (compound concentration of 0.08 ppm at 90% inhibition of fungal pathogens) | 0.08 (≈ 0.12 µM) | 0.25 to 1 (≈ 0.375 to 1.5 µM) | 0.25 to 1 (≈ 0.375 to 1.5 µM) | MIC [11, 29]: 0.25 to 1 µg/mL (≈ 0.375 to 1.5 µM); MIC [11, 30]: 1.01 to 2 µg/mL (≈ 1.51 to 3 µM) |
| COc1ccc(F)cc1[C@H](Cn1c(=O)n(CC(=O)NC(C)C)c(=O)c2c(C)c(-n3nccn3)sc21)OC(C)C [Compound I-35, (R)-2-(1-(2-(5-fluoro-2-methoxyphenyl)-2-isopropoxy-ethyl)-5-methyl-2,4-dioxo-6-(2H-1,2,3-triazol-2-yl)-1,4-dihydrothieno[2,3-d]pyrimidin-3(2H)-yl)-N-isopropylacetamide] | 1 to 5 | 1 to 5 | 2 (≈ 3.58 µM) | 10 (≈ 17.9 µM) | > 50 | > 50 | 0.4 (≈ 0.716 µM) | 0.4 (≈ 0.716 µM) | 2.1 to 4 (≈ 3.76 to 7.16 µM) | 2.01 to 4 (≈ 3.6 to 7.16 µM) | 0.4 (≈ 0.716 µM) | 0.4 (≈ 0.716 µM) | > 50 | > 50 | > 50 | > 50 | AA (compound concentration of 0.08 ppm at 90% inhibition of fungal pathogens) | 0.08 (≈ 0.143 µM) | 2.1 to 4 (≈ 3.76 to 7.16 µM) | 2.01 to 4 (≈ 3.6 to 7.16 µM) | MIC [11, 29]: 2.1 to 4 µg/mL (≈ 3.76 to 7.16 µM); MIC [11, 30]: > 4.01 µg/mL |
| CCO[C@@H](Cn1c(=O)n(C(C)(C)C(=O)N2CCCC2)c(=O)c2c(C)c(-n3nccn3)sc21)c1cc(F)ccc1OC [Compound I-42, (R)-1-(2-ethoxy-2-(5-fluoro-2-methoxyphenyl)ethyl)-5-methyl-3-(2-methyl-1-oxo-1-(pyrrolidin-1-yl)propan-2-yl)-6-(2H-1,2,3-triazol-2-yl)thieno[2,3-d]pyrimidine-2,4(1H,3H)-dione] | 5 to 10 | 5 to 10 | – | – | – | – | – | – | – | – | – | – | – | – | – | – | – | – | – | – | IC90 ([2]; mycelial plugs, growth inhibition at 48 hours vs 2% DMSO control, read-out: Concentration at 90% Inhibition Rs): 0.4 µg/mL (≈ 0.684 µM); IC90 ([2]; mycelial plugs, growth inhibition vs 2% DMSO control at 48 hours, read-out: Concentration at 90% Inhibition Rs): 0.4 µg/mL (≈ 0.684 µM); IC90 ([3]; Collectotrichum graminicola, growth inhibition at 48 hours vs 2% DMSO control, read-out: Concentration at 90% Inhibition Cg): 0.08 µg/mL (≈ 0.137 µM); IC90 ([3]; Collectotrichum graminicola, growth inhibition vs 2% DMSO control at 48 hours, read-out: Concentration at 90% Inhibition Cg): 0.08 µg/mL (≈ 0.137 µM); IC90 ([4]; Diplodia maydis, growth inhibition at 48 hours vs 2% DMSO control, read-out: Concentration at 90% Inhibition Dm): 0.4 µg/mL (≈ 0.684 µM); IC90 ([4]; Diplodia maydis, growth inhibition vs 2% DMSO control at 48 hours, read-out: Concentration at 90% Inhibition Dm): 0.4 µg/mL (≈ 0.684 µM); MIC ([5]; Table 3a, ATCC 90028, 3 replicates, MIC recorded at 48 h, read-out: MIC, C. albicans ATCC 90028): 1.1 to 2 µg/mL (≈ 1.88 to 3.42 µM); MIC ([5]; Table 3b (additional results), ATCC 90028, 3 replicates, MIC recorded at 48 h, read-out: MIC, C. albicans ATCC 90028): 2.01 to 4 µg/mL (≈ 3.44 to 6.84 µM); IC90 ([6]; growth inhibition at 48 hours vs 2% DMSO control, read-out: Concentration at 90% Inhibition Fv): 0.08 µg/mL (≈ 0.137 µM); IC90 ([6]; growth inhibition vs 2% DMSO control at 48 hours, read-out: Concentration at 90% Inhibition Fv): 0.08 µg/mL (≈ 0.137 µM); IC90 ([7]; growth inhibition at 48 hours vs 2% DMSO control, read-out: Concentration at 90% Inhibition Pc): > 50 µg/mL; IC90 ([7]; growth inhibition vs 2% DMSO control at 48 hours, read-out: Concentration at 90% Inhibition Pc): > 50 µg/mL; IC90 ([8]; Septoria tritici, growth inhibition at 48 hours vs 2% DMSO control, read-out: Concentration at 90% Inhibition St): 2 µg/mL (≈ 3.42 µM); IC90 ([8]; Septoria tritici, growth inhibition vs 2% DMSO control at 48 hours, read-out: Concentration at 90% Inhibition St): 10 µg/mL (≈ 17.1 µM); IC90 [9, 26]: 0.08 µg/mL (≈ 0.137 µM); IC90 ([9]; Fusarium moniliforme, growth inhibition vs 2% DMSO control at 48 hours): 0.08 µg/mL (≈ 0.137 µM); MIC ([10]; Table 3a, ATCC 22019, 3 replicates, MIC recorded at 48 h, read-out: MIC, C. parapsilosis ATCC 22019): 1.1 to 2 µg/mL (≈ 1.88 to 3.42 µM); MIC ([10]; Table 3b (additional results), ATCC 22019, 3 replicates, MIC recorded at 48 h, read-out: MIC, C. parapsilosis ATCC 22019): 1.01 to 2 µg/mL (≈ 1.73 to 3.42 µM); MIC ([11]; Table 3a, ATCC 6258, 3 replicates, MIC recorded at 48 h, read-out: MIC, C. krusei ATCC 6258): 0.25 to 1 µg/mL (≈ 0.428 to 1.71 µM); MIC ([11]; Table 3b (additional results), ATCC 6258, 3 replicates, MIC recorded at 48 h, read-out: MIC, C. krusei ATCC 6258): 1.01 to 2 µg/mL (≈ 1.73 to 3.42 µM) |
| COc1ccc(F)cc1[C@H](Cn1c(=O)n(C(C)(C)C(=O)NC(C)C)c(=O)c2c(C)c(-n3nccn3)sc21)OCCO [Compound I-43, (R)-2-(1-(2-(5-fluoro-2-methoxyphenyl)-2-(2-hydroxyethoxy)ethyl)-5-methyl-2,4-dioxo-6-(2H-1,2,3-triazol-2-yl)-1,4-dihydrothieno[2,3-d]pyrimidin-3(2H)-yl)-N-isopropyl-2-methylpropanamide] | 5 to 10 | 5 to 10 | 0.08 (≈ 0.136 µM) | 0.08 (≈ 0.136 µM) | 0.4 (≈ 0.68 µM) | 0.4 (≈ 0.68 µM) | 0.4 (≈ 0.68 µM) | 0.4 (≈ 0.68 µM) | 0.25 to 1 (≈ 0.425 to 1.7 µM) | 0.25 to 1 (≈ 0.425 to 1.7 µM) | 0.4 (≈ 0.68 µM) | 0.4 (≈ 0.68 µM) | 2 (≈ 3.4 µM) | 10 (≈ 17 µM) | 2 (≈ 3.4 µM) | 10 (≈ 17 µM) | AA (compound concentration of 0.08 ppm at 90% inhibition of fungal pathogens) | 0.08 (≈ 0.136 µM) | 0.25 to 1 (≈ 0.425 to 1.7 µM) | 0.25 to 1 (≈ 0.425 to 1.7 µM) | MIC [11, 29]: 0.25 to 1 µg/mL (≈ 0.425 to 1.7 µM); MIC [11, 30]: 0.25 to 1 µg/mL (≈ 0.425 to 1.7 µM) |

— patent publication US10800791B2, “Triazole ACC inhibitors and uses thereof” (Gilead Apollo, LLC, priority 2015, dated 2020)
